Source: patent US20180193321A1, “INDOLO[…]” (The Rockefeller University, priority 2015, published 2018)

How the values were obtained:
[1] = Cytotoxicity / antiproliferative activity, crystal violet viability assay; format: cell-based, human; conditions: human, HCT-116 colon carcinoma cells; HCT-116 cells, 3 days incubation, crystal violet absorbance at 590 nm relative to DMSO control, triplicate; read-out: IC50 (cytotoxicity against HCT-116)
Method: (§1) Because known indolotryptolines are potent human cell line toxins, lazarimide C, novel compounds 6 and 7, as well as cladoniamide A as a control, were tested for cytotoxicity against HCT-116 human colon carcinoma cancer cells.
(§2) The compounds were tested for antiproliferative activity in triplicate using the colon carcinoma cell line HCT-116 (ATCC; CCL-247) [See Brattain et al., “Heterogeneity of malignant cells from a human colonic carcinoma.” Cancer Res. 41(5):1751-1756(1981), incorporated herein by reference in its entirety]. For assays, frozen HCT-116 cells were thawed and grown in McCoy's 5A Modified Medium (Gibco) supplemented with 10% (v/v) FBS. Cells were sub-cultured once, and then cells in log phase growth were harvested by trypsinization. Trypsinized cells were seeded into 96-well plates (1,000 cells/well) and incubated overnight at 37° C. in the presence of 5% CO2. Compounds 6, 7, lazarimide C and cladoniamide (10 mg/mL in DMSO) were sequentially diluted in culture media (2-fold dilution starting at 50 μg/mL) across a 96-well plate and 100 μL was transferred to the appropriate well in an assay plate. The plates were incubated at 37° C. for 3 days and then evaluated for viability using a crystal violet-based colorimetric assay [See Zivadinovic et al., “Membrane estrogen receptor-alpha levels in MCF-7 breast cancer cells predict cAMP and proliferation responses.” Breast Cancer Res. 7(1):R101-112 (2005)]. Cell viability was recorded based on the absorbance at 590 nm in compound treated well relative to DMSO control wells.

[2] = system: HCT-116 human colon carcinoma cancer cells; assay: as above; format: cell-based; conditions: HCT-116 cells, 3 days incubation, crystal violet absorbance at 590 nm relative to DMSO control, triplicate; read-out: IC50 (cytotoxicity against HCT-116)
Method: as §1, §2

| Compound | IC50 at 3 days [1] [nM] | IC50 [2] [nM] |
| --- | --- | --- |
| COc1c2n(c3cc(Cl)ccc13)[C@]1(O)C(=O)N(C)C(=O)[C@]1(O)c1c-2[nH]c2ccc(Cl)cc12 [Compound 6, lazarimide B] | 11.6 |  |
| COc1c2n(c3cc(Cl)c(O)cc13)[C@]1(O)C(=O)N(C)C(=O)[C@]1(O)c1c-2[nH]c2ccc(Cl)cc12 [Compound 7, lazarimide A] | 8.4 |  |
| COc1c2n(c3ccccc13)[C@]1(O)C(=O)N(C)C(=O)[C@]1(O)c1c-2[nH]c2ccc(Cl)cc12 [cladoniamide A, reference compound] |  | 40.4 |
| CN1C(=O)[C@@]2(O)c3c([nH]c4cc(Cl)ccc34)-c3[nH]c4ccc(Cl)cc4c3[C@@]2(O)C1=O [lazarimide C] | 25800 |  |
